Where two headings read alike, the source gives them in different places.
Legend:
Assay in all cases: KINOMEscan assay (Eurofins DiscoverX)
Assay type in all cases: binding
kinome (kinase panel) [1] = target: T1, kinome (kinase panel) (Homo sapiens, UniProt Q8TD08); conditions: ERK8 (Entrez MAPK15); 1000 nM; read-out: Percent Control
T1 construct: purchased Eurofins DiscoverX

kinome (kinase panel) [2] = target: T2, kinome (kinase panel) (Homo sapiens, UniProt P33981); conditions: TTK; 1000 nM; read-out: Percent Control
T2 construct: purchased Eurofins DiscoverX

kinome (kinase panel) [3] = target: T3, kinome (kinase panel) (Homo sapiens, UniProt O43283); conditions: LZK (Entrez MAP3K13); 1000 nM; read-out: Percent Control
T3 construct: purchased Eurofins DiscoverX

kinome (kinase panel) [4] = target: T4, kinome (kinase panel) (Homo sapiens, UniProt Q96RR4); conditions: CAMKK2; 1000 nM; read-out: Percent Control
T4 construct: purchased Eurofins DiscoverX

kinome (kinase panel) [5] = target: T5, kinome (kinase panel) (Homo sapiens, UniProt P27037); conditions: ACVR2A; 1000 nM; read-out: Percent Control
T5 construct: purchased Eurofins DiscoverX

kinome (kinase panel) [6] = target: T6, kinome (kinase panel) (Homo sapiens, UniProt P54756); conditions: EPHA5; 1000 nM; read-out: Percent Control
T6 construct: purchased Eurofins DiscoverX

kinome (kinase panel) [7] = target: T7, kinome (kinase panel) (Homo sapiens, UniProt Q99759); conditions: MAP3K3; 1000 nM; read-out: Percent Control
T7 construct: purchased Eurofins DiscoverX

kinome (kinase panel) [8] = target: T8, kinome (kinase panel) (Homo sapiens, UniProt P10721, V559D/V654A); conditions: read-out: Percent Control
T8 construct: purchased Eurofins DiscoverX
T8 sequence (P10721 26-976 V559D/V654A): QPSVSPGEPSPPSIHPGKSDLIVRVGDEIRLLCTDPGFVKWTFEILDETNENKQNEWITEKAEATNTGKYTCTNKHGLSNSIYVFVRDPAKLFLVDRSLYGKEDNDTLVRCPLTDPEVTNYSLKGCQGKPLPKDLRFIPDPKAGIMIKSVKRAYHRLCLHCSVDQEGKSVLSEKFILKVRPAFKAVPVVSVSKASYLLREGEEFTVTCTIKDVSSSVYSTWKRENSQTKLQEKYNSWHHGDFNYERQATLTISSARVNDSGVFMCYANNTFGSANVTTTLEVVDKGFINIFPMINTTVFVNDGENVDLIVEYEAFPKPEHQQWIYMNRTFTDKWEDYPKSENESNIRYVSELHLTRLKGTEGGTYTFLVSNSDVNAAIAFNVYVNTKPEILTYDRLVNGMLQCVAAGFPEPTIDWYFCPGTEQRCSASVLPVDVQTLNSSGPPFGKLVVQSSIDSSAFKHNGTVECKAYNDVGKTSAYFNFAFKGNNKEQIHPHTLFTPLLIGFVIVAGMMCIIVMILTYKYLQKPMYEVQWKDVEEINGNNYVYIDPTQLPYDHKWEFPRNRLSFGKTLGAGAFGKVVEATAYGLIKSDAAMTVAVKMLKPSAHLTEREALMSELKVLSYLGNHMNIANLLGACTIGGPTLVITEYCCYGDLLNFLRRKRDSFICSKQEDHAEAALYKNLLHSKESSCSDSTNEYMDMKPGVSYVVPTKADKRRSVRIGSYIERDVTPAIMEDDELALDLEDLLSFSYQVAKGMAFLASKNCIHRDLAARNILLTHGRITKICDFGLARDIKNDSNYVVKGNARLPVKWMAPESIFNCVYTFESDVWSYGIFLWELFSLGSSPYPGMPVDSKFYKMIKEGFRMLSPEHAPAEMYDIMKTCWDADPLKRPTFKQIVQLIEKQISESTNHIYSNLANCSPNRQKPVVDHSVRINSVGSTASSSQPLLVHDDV

kinome (kinase panel) [9] = target: T9, kinome (kinase panel) (Homo sapiens, UniProt P00519, Q252H)
T9 construct: purchased Eurofins DiscoverX

kinome (kinase panel) [10] = target: T10, kinome (kinase panel) (Homo sapiens, UniProt Q16513); conditions: PKN2; 1000 nM; read-out: Percent Control
T10 construct: purchased Eurofins DiscoverX

kinome (kinase panel) [11] = target: T11, kinome (kinase panel) (Homo sapiens, UniProt O14965); conditions: AURKA; 1000 nM; read-out: Percent Control
T11 construct: purchased Eurofins DiscoverX

kinome (kinase panel) [12] = target: T12, kinome (kinase panel) (Homo sapiens, UniProt Q9UQM7); conditions: CAMK2A; 1000 nM; read-out: Percent Control
T12 construct: purchased Eurofins DiscoverX

kinome (kinase panel) [13] = target: T13, kinome (kinase panel) (Homo sapiens, UniProt Q05397); conditions: FAK (Entrez PTK2); 1000 nM; read-out: Percent Control
T13 construct: purchased Eurofins DiscoverX

kinome (kinase panel) [14] = target: T14, kinome (kinase panel) (Homo sapiens, UniProt P52333); conditions: JAK3(JH1domain-catalytic); 1000 nM; read-out: Percent Control
T14 construct: purchased Eurofins DiscoverX

kinome (kinase panel) [15] = target: T15, kinome (kinase panel) (Homo sapiens, UniProt P49759); conditions: CLK1; 1000 nM; read-out: Percent Control
T15 construct: purchased Eurofins DiscoverX

kinome (kinase panel) [16] = target: T16, kinome (kinase panel) (Homo sapiens, UniProt Q12852); conditions: DLK (Entrez MAP3K12); 1000 nM; read-out: Percent Control
T16 construct: purchased Eurofins DiscoverX

kinome (kinase panel) [17] = target: T17, kinome (kinase panel) (Homo sapiens, UniProt P10721); conditions: 1000 nM, read-out: Percent Control
T17 construct: purchased Eurofins DiscoverX
T17 sequence (P10721 26-976): as the sequence (P10721 26-976 V559D/V654A) above, with D534V, A629V counted along it

kinome (kinase panel) [18] = target: T18, kinome (kinase panel) (Homo sapiens, UniProt P51812); conditions: 1000 nM, read-out: Percent Control
T18 construct: purchased Eurofins DiscoverX
T18 sequence (P51812 whole entry): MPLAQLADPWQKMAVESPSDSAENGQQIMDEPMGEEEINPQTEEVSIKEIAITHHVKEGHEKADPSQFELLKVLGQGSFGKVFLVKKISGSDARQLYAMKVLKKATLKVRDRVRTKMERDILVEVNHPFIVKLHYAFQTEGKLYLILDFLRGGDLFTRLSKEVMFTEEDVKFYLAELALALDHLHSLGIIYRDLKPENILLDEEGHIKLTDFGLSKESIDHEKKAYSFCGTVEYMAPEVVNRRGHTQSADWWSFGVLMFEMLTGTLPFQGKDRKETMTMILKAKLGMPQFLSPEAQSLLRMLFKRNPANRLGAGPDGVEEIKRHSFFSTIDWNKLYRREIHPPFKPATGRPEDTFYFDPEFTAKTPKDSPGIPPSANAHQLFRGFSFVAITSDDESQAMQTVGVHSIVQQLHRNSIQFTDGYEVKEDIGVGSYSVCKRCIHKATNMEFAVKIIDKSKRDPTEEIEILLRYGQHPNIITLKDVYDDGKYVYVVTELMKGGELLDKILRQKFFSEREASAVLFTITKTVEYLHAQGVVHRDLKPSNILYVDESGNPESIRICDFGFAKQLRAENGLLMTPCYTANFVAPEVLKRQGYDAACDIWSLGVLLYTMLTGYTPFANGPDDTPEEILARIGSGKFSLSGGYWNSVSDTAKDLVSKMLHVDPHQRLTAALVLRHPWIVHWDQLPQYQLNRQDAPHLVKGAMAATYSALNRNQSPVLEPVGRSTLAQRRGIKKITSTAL

kinome (kinase panel) [19] = target: T19, kinome (kinase panel) (Homo sapiens, UniProt P06213); conditions: INSR; 1000 nM; read-out: Percent Control
T19 construct: purchased Eurofins DiscoverX

kinome (kinase panel) [20] = target: T20, kinome (kinase panel) (Homo sapiens, UniProt Q96SB4); conditions: SRPK1; 1000 nM; read-out: Percent Control
T20 construct: purchased Eurofins DiscoverX

kinome (kinase panel) [21] = target: T21, kinome (kinase panel) (Homo sapiens, UniProt Q5VT25); conditions: MRCKA (Entrez CDC42BPA); 1000 nM; read-out: Percent Control
T21 construct: purchased Eurofins DiscoverX

kinome (kinase panel) [22] = target: T22, kinome (kinase panel) (Homo sapiens, UniProt Q15139); conditions: PRKD1; 1000 nM; read-out: Percent Control
T22 construct: purchased Eurofins DiscoverX
T22 sequence (Q15139 whole entry): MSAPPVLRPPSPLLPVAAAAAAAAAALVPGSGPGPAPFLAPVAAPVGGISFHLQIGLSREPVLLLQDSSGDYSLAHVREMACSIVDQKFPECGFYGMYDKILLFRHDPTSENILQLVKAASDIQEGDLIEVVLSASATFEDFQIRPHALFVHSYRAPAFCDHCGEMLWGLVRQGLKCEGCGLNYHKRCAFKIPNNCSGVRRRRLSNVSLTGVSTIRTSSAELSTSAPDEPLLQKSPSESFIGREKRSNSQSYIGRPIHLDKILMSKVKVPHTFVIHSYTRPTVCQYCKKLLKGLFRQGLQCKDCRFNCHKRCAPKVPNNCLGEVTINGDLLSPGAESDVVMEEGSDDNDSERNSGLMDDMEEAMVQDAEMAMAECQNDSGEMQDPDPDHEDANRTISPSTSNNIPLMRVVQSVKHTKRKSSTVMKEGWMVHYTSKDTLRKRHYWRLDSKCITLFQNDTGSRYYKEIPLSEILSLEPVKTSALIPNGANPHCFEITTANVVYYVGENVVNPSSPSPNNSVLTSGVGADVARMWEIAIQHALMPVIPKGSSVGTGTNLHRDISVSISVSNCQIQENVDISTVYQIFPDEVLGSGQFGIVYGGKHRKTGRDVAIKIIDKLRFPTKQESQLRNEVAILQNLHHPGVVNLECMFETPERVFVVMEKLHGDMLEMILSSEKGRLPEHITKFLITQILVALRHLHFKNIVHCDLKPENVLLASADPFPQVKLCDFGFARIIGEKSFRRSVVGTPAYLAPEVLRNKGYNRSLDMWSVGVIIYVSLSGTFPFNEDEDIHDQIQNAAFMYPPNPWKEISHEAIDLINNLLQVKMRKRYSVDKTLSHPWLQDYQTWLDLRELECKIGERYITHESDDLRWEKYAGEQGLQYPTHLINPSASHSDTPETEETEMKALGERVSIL

kinome (kinase panel) [23] = target: T23, kinome (kinase panel) (Homo sapiens, UniProt O15530); conditions: PDPK1; 1000 nM; read-out: Percent Control
T23 construct: purchased Eurofins DiscoverX

kinome (kinase panel) [24] = target: T24, kinome (kinase panel) (Homo sapiens, UniProt O75385); conditions: ULK1; 1000 nM; read-out: Percent Control
T24 construct: purchased Eurofins DiscoverX
T24 sequence (O75385 whole entry): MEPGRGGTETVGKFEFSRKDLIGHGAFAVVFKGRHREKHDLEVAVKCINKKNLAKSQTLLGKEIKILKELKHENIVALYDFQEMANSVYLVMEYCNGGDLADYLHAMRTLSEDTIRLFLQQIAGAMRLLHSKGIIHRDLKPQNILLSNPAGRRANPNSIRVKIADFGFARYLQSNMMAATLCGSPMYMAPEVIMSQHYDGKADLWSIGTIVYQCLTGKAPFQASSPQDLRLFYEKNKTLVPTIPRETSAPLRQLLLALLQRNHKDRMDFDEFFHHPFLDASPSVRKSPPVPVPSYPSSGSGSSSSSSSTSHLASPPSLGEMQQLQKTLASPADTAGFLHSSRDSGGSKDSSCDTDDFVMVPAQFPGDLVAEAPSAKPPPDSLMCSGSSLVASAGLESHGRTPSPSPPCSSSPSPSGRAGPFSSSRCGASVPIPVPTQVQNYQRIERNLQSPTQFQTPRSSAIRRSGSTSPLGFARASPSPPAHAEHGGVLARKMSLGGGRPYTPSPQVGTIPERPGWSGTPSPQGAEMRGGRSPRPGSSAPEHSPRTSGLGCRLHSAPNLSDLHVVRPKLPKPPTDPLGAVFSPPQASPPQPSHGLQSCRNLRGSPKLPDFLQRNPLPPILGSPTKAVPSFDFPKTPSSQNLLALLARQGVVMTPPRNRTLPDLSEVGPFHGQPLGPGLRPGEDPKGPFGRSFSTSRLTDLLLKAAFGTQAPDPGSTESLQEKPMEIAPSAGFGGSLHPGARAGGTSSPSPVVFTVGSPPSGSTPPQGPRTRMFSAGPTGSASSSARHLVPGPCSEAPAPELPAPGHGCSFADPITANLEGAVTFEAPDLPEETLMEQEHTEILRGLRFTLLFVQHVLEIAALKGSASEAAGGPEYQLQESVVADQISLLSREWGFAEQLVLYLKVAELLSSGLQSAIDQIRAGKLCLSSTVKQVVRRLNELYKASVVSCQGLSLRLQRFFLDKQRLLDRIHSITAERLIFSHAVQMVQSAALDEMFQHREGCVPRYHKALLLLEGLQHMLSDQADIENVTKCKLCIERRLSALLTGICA

kinome (kinase panel) [25] = target: T25, kinome (kinase panel) (Homo sapiens, UniProt Q9BRS2); conditions: RIOK1; 1000 nM; read-out: Percent Control
T25 construct: purchased Eurofins DiscoverX

kinome (kinase panel) [26] = target: T26, kinome (kinase panel) (Homo sapiens, UniProt P41743); conditions: PRKCI; 1000 nM; read-out: Percent Control
T26 construct: purchased Eurofins DiscoverX
T26 sequence (P41743 whole entry): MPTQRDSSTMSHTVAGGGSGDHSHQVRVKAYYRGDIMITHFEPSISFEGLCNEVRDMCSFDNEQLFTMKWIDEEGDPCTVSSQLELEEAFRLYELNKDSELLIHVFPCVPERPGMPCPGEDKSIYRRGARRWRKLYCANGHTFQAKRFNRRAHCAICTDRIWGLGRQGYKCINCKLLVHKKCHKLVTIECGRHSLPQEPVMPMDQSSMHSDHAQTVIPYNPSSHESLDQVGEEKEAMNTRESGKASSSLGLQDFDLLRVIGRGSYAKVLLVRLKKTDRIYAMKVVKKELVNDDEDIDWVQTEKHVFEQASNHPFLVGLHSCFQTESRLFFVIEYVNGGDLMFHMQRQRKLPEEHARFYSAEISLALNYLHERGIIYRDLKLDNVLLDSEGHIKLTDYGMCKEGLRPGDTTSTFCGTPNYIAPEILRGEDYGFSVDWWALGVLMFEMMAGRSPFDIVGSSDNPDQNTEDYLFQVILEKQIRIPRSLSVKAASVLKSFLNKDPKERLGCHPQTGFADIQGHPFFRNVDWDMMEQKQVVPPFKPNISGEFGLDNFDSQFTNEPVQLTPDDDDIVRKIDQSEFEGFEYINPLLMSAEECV

kinome (kinase panel) [27] = target: T27, kinome (kinase panel) (Homo sapiens, UniProt Q00526); conditions: CDK3; 1000 nM; read-out: Percent Control
T27 construct: purchased Eurofins DiscoverX

kinome (kinase panel) [28] = target: T28, kinome (kinase panel) (Homo sapiens, UniProt P06239); conditions: LCK; 1000 nM; read-out: Percent Control
T28 construct: purchased Eurofins DiscoverX

kinome (kinase panel) [29] = target: T29, kinome (kinase panel) (Homo sapiens, UniProt Q8IY84); conditions: NIM1 (Entrez MGC42105); 1000 nM; read-out: Percent Control
T29 construct: purchased Eurofins DiscoverX

kinome (kinase panel) [30] = target: T30, kinome (kinase panel) (Homo sapiens, UniProt O00506); conditions: YSK1 (STK25); 1000 nM; read-out: Percent Control
T30 construct: purchased Eurofins DiscoverX

kinome (kinase panel) [31] = target: T31, kinome (kinase panel) (Homo sapiens, UniProt P00519, E255K); conditions: read-out: Percent Control
T31 construct: purchased Eurofins DiscoverX

kinome (kinase panel) [32] = target: T32, kinome (kinase panel) (Homo sapiens, UniProt Q9H3Y6); conditions: SRMS; 1000 nM; read-out: Percent Control
T32 construct: purchased Eurofins DiscoverX

T1 sequence (Q8TD08 whole entry): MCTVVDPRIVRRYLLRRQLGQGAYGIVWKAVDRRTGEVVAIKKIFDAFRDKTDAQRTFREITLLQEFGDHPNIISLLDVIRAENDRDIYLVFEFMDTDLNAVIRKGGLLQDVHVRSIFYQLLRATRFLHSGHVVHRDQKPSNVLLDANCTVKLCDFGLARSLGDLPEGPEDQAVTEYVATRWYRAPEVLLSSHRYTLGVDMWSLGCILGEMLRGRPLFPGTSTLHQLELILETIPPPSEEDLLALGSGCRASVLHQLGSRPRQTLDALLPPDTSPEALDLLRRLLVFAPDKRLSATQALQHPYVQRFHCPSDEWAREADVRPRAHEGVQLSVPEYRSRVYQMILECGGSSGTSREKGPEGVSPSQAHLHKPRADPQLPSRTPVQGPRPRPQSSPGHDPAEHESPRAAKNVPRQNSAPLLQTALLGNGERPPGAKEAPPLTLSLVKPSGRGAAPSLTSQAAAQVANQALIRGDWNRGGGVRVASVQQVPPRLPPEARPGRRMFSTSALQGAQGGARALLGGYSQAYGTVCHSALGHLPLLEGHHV

## CN(C)C(=O)c1cc2cnc(Nc3ccc(-c4csc5c(=O)cc(N6CCOCC6)oc45)cc3)nc2n1C1CCCC1 [SRX3177]
Kinome (kinase panel) [1]
  remaining binding at 1 µM: 81%
Kinome (kinase panel) [2]
  remaining binding at 1 µM: 1.8%
Kinome (kinase panel) [3]
  remaining binding at 1 µM: 48%
Kinome (kinase panel) [4]
  remaining binding at 1 µM: 36%
Kinome (kinase panel) [5]
  remaining binding at 1 µM: 99%
Kinome (kinase panel) [6]
  remaining binding at 1 µM: 100%
Kinome (kinase panel) [7]
  remaining binding at 1 µM: 58%
Kinome (kinase panel) [8]
  remaining binding at 1 µM: 100%
Kinome (kinase panel) [9]
  Percent Control: 58
Kinome (kinase panel) [9]; read-out: Percent Control
  remaining binding at 1 µM: 72%
Kinome (kinase panel) [10]
  remaining binding at 1 µM: 70%
Kinome (kinase panel) [11]
  remaining binding at 1 µM: 0%
Kinome (kinase panel) [12]
  remaining binding at 1 µM: 76%
Kinome (kinase panel) [13]
  remaining binding at 1 µM: 90%
Kinome (kinase panel) [14]
  remaining binding at 1 µM: 13%
Kinome (kinase panel) [15]
  remaining binding at 1 µM: 100%
Kinome (kinase panel) [16]
  remaining binding at 1 µM: 73%
Kinome (kinase panel) [17]; KIT-autoinhibited
  remaining binding at 1 µM: 73%
Kinome (kinase panel) [17]; KIT
  remaining binding at 1 µM: 68%
Kinome (kinase panel) [18]; RSK2(Kin.Dom.1-N-terminal) (RPS6KA3)
  remaining binding at 1 µM: 80%
Kinome (kinase panel) [18]; RSK2(Kin.Dom.2-C-terminal) (RPS6KA3)
  remaining binding at 1 µM: 100%
Kinome (kinase panel) [19]
  remaining binding at 1 µM: 47%
Kinome (kinase panel) [20]
  remaining binding at 1 µM: 22%
Kinome (kinase panel) [21]
  remaining binding at 1 µM: 98%
Kinome (kinase panel) [22]
  remaining binding at 1 µM: 100%
Kinome (kinase panel) [23]
  remaining binding at 1 µM: 98%
Kinome (kinase panel) [24]
  remaining binding at 1 µM: 90%
Kinome (kinase panel) [25]
  remaining binding at 1 µM: 18%
Kinome (kinase panel) [26]
  remaining binding at 1 µM: 89%
Kinome (kinase panel) [27]
  remaining binding at 1 µM: 69%
Kinome (kinase panel) [28]
  remaining binding at 1 µM: 79%
Kinome (kinase panel) [29]
  remaining binding at 1 µM: 69%
Kinome (kinase panel) [30]
  remaining binding at 1 µM: 100%
Kinome (kinase panel) [31]
  remaining binding at 1 µM: 59%
Kinome (kinase panel) [32]
  remaining binding at 1 µM: 92%
